Read-outs that look alike come from different tables or passages of the source.

We go through two molecules from article PMC4657468, “Impaired uptake of conjugated bile acids and hepatitis b virus pres1-binding in na^+-taurocholate cotransporting polypeptide knockout mice” (Hepatology (Baltimore, Md.), 2015).

The conditions of data set [1]: for Serum TCA elimination t½: intravenous bolus 150 μmol TCA/kg with trace tritium-labeled TCA after gallbladder cannulation, one-phase decay, n = 5.
Description: Differences between groups were analyzed using a two-tailed Student t test. […] Results were considered statistically significant at P < 0.05.
The target of data set [2] is T1, NTCP (Mus musculus, UniProt O08705).
T1 sequence (O08705 1-362): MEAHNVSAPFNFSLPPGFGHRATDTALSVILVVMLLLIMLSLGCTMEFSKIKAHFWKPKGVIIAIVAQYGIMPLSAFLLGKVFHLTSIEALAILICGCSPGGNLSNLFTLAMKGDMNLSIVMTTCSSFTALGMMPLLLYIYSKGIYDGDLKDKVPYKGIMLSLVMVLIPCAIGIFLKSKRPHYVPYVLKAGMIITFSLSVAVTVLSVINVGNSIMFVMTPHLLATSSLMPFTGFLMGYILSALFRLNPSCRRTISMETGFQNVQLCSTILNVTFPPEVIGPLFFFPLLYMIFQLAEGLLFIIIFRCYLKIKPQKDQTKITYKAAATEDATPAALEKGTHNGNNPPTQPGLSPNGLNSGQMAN
The conditions noted are these: 1 μM Myrcludex B, 30 min preincubation, WT PMHs, 10 μM TCA, 1 minute. An excerpt:
(§1) Bars represent the mean ± SEM for two independent experiments, each performed in triplicate. *P < 0.05. (B) Total serum BA concentrations in male and female WT and Slc10a1^−/− (KO) mice. Data are given as mean ± SEM on a ^10log scale for seven to 16 mice in each group, quantified using the total BA assay. Serum composition of (C) conjugated and (D) unconjugated BA species as quantified using high-pressure liquid chromatography. […] Unconjugated BA (U-BA) concentrations are the sum of ω-muricholic acid, α-muricholic acid, β-muricholic acid, cholic acid, UDCA, chenodeoxycholic acid, and DCA. Data are given as mean ± SEM on a ^10log scale for three to six mice in each group. *P < 0.05 (compared to WT levels). […] Conjugated BA (dark gray) and unconjugated BA (light gray) species are shown as a percentage of total, as quantified using high-pressure liquid chromatography. (F) Total serum BA levels in relation to body weights of WT (open dots) and KO (black dots) 8-week-old mice (n – 11–14). […]
(§2) mouse NTCP antibody in block ing buffer f or 1 hour. Af ter washings, the slides were incubated with goat anti-rabbit Alexa 568 IgG. Images were captured with a Leica SP8X […]
(§3) Primary hepatocyte isolation and sandwich culture
(§4) Primary mouse hepatocytes (PMHs) were isolated from wild- type and Slc10a1 -/- mice by a 2-step collagenase perfusion method. […]

The test system of a further data set is Slc10a1−/− PMHs. The data set is classed as cell-based, mouse. To be noted: 1 μM Myrcludex B, sodium-dependent as well as sodium-free conditions.
From the text: as §1, §2, §3, §4

Data set [3] deals with NTCP. To be noted: at high concentrations; cited from earlier work. From the text: (§5) During and after a meal, bile acids (BAs) are released into the small intestine, where they facilitate the absorption of dietary fat and fat-soluble vitamins.[1] The majority of BAs are reabsorbed in the terminal ileum and transported back to the liver through the portal circulation. At the basolateral membranes of the hepatocytes, BAs are taken up from the portal circulation, extruded across the canalicular hepatocyte membrane, and transported to the gallbladder to complete the enterohepatic circulation.[2] Conjugated BAs are transported across the basolateral hepatic membrane through a sodiu ...

The test system of a further data set is hepatitis B virus. The conditions noted are these: cited from earlier work.
From the text: as §5

As to `C[C@H](CCC(=O)NCCS(=O)(=O)O)[C@H]1CC[C@H]2[C@@H]3[C@H](O)C[C@@H]4C[C@H](O)CC[C@]4(C)[C@H]3C[C@H](O)[C@]12C` [TCA, taurocholic acid], the “Serum TCA elimination t½” value in data set [1] (WT mice) came out at 1.5 min; in data set [1] (normocholanemic Slc10a1−/− mice), 5.3 min. Also, the “Lethality of the high dose of TCA” value in data set [1] (hypercholanemic Slc10a1−/− mice, intravenous bolus 150 μmol TCA/kg, shortly after injection) is “lethal”.

Take Myrcludex B: the “Effect on TCA uptake under sodium-free conditions” value at NTCP [2] (NMDG buffer) is recorded as “no effect”. In addition, the “Effect on sodium-dependent TCA uptake” value on NTCP [2] (sodium-containing buffer) is listed as “abrogated sodium-dependent TCA uptake”. The “Effect on TCA uptake in Slc10a1−/− PMHs” value with Slc10a1−/− PMHs is “unaffected”. Further, the “NTCP-mediated BA uptake” value with NTCP [3] was “inhibits NTCP-mediated BA uptake at high concentrations”. In addition, the “Virus entry mediated by NTCP” value in the data set on hepatitis B virus is listed as “blocked”.
